Experiments:
plaquettes = test: Platelet anti-aggregation activity, aggregation induced by adenosine triphosphate; format: cell-based; settings: dose reducing platelet aggregation by 50%; inducer adénosine triphosphate; read-out: D.E.50 (the source's name)
Source text: Les propriétés antiagrégantes plaquettaires des acrylophénones de la présente invention ont été mises en évidence au moyen d'adénosine triphosphate choisi comme agent inducteur de l'agrégation plaquettaire.
Les doses efficaces réduisant de 50% l'agrégation des plaquettes (D.E.50) ont été déterminées (Tableau II). Ces résultats montrent que les substances agissent à des doses de l'ordre micromolaire.

rat = test: Triton WR 1339-induced hyperlipidaemia in the rat (plasma triglycerides and cholesterol); format: in vivo; settings: Triton WR 1339 175 mg/kg (IV), plasma 24 h after Triton
Protocol: Cette propriété a été mise en évidence chez le rat au moyen de la méthode utilisant le Triton WR 1339 comme inducteur d'hyperlipémie.
Quatre heures après l'injection I.V. aux rats de 175 mg de Triton WR 1339 par kg de poids corporel, on leur injecte par voie intrapéritonéale soit du sérum physiologique (témoins) soit la substance à étudier. Les rats sont sacrifiés 24 heures après l'injection du Triton WR 1339 et les plasmas recueillis pour les dosages (résultats : Tableau I) des triglycérides et du cholestérol.

[1] = Qualitative solubility of the isolated product; format: physicochemical
Protocol: 3 g (0,1 M) de trioxyméthylène et 8,65 g (0,05 M) de dichlorhydrate de N-méthylpipérazine sont ajoutés à 6 g d'acétophénone dans 20 ml d'acide acétique. Le mélange est chauffé à reflux pendant 3 h. Le solvant est éliminé et le résidu jaune huileux est dissous dans 50 ml d'éthanol. Après élimimation du solvant, le résidu cristallise dans du méthanol.

[2] = treatment 4 mg/kg (IP) 4 h after Triton
[3] = treatment 2 mg/kg (IP) 4 h after Triton

Row | IC50 (plaquettes) [nM] | solubilité dans l'acétone ([1]; acetone) | solubilité dans l'alcool ([1]; alcohol) | solubilité dans l'eau ([1]; water) | Structure (SMILES) | Diminution(%)sous l'influence du traitement cholestérolémie (rat; [2]) | Diminution(%)sous l'influence du traitement triglycéridémie (rat; [2]) | Diminution(%)sous l'influence du traitement cholestérolémie (rat; [3]) [%] | Diminution(%)sous l'influence du traitement triglycéridémie (rat; [3])
1 | 1320 | pratiquement insoluble dans l'acétone | peu soluble dans l'alcool | très soluble dans l'eau | C=C(CN1CCN(C)CC1)C(=O)c1ccccc1 [Exemple 1, Dichlorhydratede 2-(4-méthyl-1-pipérazinylméthyl)acrylophénone] | 57,5% | 47% |  | 
2 | 1940 |  |  |  | C=C(CN1CCOCC1)C(=O)c1ccccc1 [chlorhydratede 2-(1-morpholinométhyl)-acrylophénone] | 51,0% | 44,5% |  | 
3 | 1130 |  |  |  | C=C(CN(C)C)C(=O)c1ccccc1 [chlorhydratede 2-(N,N-diméthylaminométhyl)-acrylophénone] |  |  | 48 | 36,5%

From patent EP0156785A1, “2-(Aminoalkyl)-acrylophenones, their preparation and their use” (S.A.R.L. GALEPHAR, priority 1984, dated 1985)
